Test results reported in patent US20250034186A1, “ANTIVIRAL COMPOUNDS” (priority 2020, published 2025).

Key:
HRV16 = HRV16 HeLa EC50; type: cell-based, human rhinovirus; conditions: for EC50: Human rhinovirus sp., HRV16, H1-HeLa cells, 96 h, 33° C.
Method: H1-HeLa cells, cultured in complete DMEM medium containing 10% heat-inactivated FBS and 1% Penicillin/Streptomycin, were seeded in 96 well plates at 3000 cells/well one day prior to compound dosing and infection. The antiviral activity of each compound was measured in triplicate. Compounds were added directly to the cell cultures in serial 3-fold dilutions using the HP300 digital dispenser (Hewlett Packard, Palo Alto, CA) immediately prior to infection. The plates were transferred to BSL-2 containment and the appropriate dilution of virus stock, previously determined by titration and prepared in cell culture media, was added to test plates containing cells and serially diluted compounds. Each plate included 6 wells of infected untreated cells and 6 wells of uninfected cells that served as 0% and 100% virus inhibition control, respectively. Following the infection, test plates were incubated for 96 h in a tissue culture incubator set to 33° C./5% CO2. Following incubation, the H1-HeLa cells were removed from incubation and allowed to equilibrate to 25° C. Cell viability was determined by removing 100 μL of culture medium and adding 100 μL of Cell-Titer Glo viability reagent. The mixtures were incubated on a shaker for 10 minutes at 25° C., and the luminescence signal was quantified on an Envision luminescence plate reader.

HRV1a = assay: HRV1A HeLa EC50; type: cell-based, human rhinovirus; conditions: for EC50: Human rhinovirus sp., HRV1A, HeLa, 96 h, read-out: HRV1A HeLa EC50
Method: (§1) H1-HeLa cells, cultured in complete RPMI 1640 medium containing 10% heat-inactivated FBS and 1% Penicillin/Streptomycin, were seeded in 96 well plates at 5000 cells/well one day prior to compound dosing and infection. The antiviral activity of each compound was measured in triplicate. Compounds were added directly to the cell cultures in serial 3-fold dilutions using the HP300 digital dispenser (Hewlett Packard, Palo Alto, CA) immediately prior to infection. The plates were transferred to BSL-2 containment and 100 μL of 1/4000 dilution of HRV1a virus stock was added to each well containing cells and serially diluted compounds. Each plate included 6 wells of infected untreated cells and 6 wells of cells containing 5 μM Rupintrivir that served as 0% and 100% virus inhibition control, respectively. Following the infection, test plates were incubated for 96 h in a tissue culture incubator set to 37° C./5% CO2. Following incubation, the H1-HeLa cells were removed from incubation and allowed to equilibrate to 25° C. Cell viability was determined by removing 100 μL of culture medium and adding 100 μL of Cell-Titer Glo viability reagent. The mixtures were incubated on a shaker for 10 minutes at 25° C., and the luminescence signal was quantified on an Envision luminescence plate reader.

HRV14 = HRV14 HeLa EC50; type: cell-based, human rhinovirus; conditions: for EC50: Human rhinovirus sp., HRV14, H1-HeLa cells, 96 h, 37° C.
Method: as §1, with “HRV14” for “HRV1a”

RSV A strain A2 = assay: RSV HAE EC50, intracellular RSV RNA by real-time PCR; type: cell-based; conditions: for EC50: human respiratory syncytial virus, 72 h, RSV A2 in HAE cells, air-liquid interface, 3 days, RSV RNA
Method: HAE cells are cultured at the air-liquid interface and have an apical side that is exposed to the air and a basal side that is in contact with the medium. Prior to experimentation, HAE were removed from their agar-based shipping packaging and were acclimated to 37° C./5% CO2 overnight in 1 ml of HAE Assay medium (AIR-100-MM, Mattek Corp). HAE were prepared for infection by washing the apical surface twice with 400 μL of PBS (either utilizing direct pipetting methods or by running each transwell through a trough containing PBS) to remove the mucus layer. Apical chambers were drained of PBS and tapped gently onto absorbent material to remove as much PBS as possible. After washing, the cells were transferred to fresh HAE maintenance media containing 4-fold serially diluted compound, delivered to the basal side of the cell monolayer, and apically infected with 100 μL of a 1:600 dilution of RSV A strain A2 1000× stock (ABI, Columbia, MD, Cat #10-124-000) in HAE assay medium for 3 hours at 37° C. in 5% CO2. The virus inoculum was removed and the apical surface of the cells was washed 3 times with PBS using either method previously described. The cells were then cultured in the presence of compound for 3 days at 37° C. Following the incubation, total RNA was extracted from the HAE cells using a MagMAX-96 Viral RNA isolation kit (Applied Biosystems, Foster City, CA, Cat #AM1836) and intracellular RSV RNA was quantified by real-time PCR. Approximately 25 ng of purified RNA was added to a PCR reaction mixture that contained 0.9 μM RSV N Forward and RSV N Reverse primers, 0.2 μM RSV N Probe and 1× Taqman RNA-to-Ct 1-Step Kit (Applied Biosystems, Foster City, CA, Cat #4392938). RNA levels were normalized using a Taqman GAPDH control primer set (Applied Biosystems, Foster City, CA, Cat #402869). Real-Time PCR Primers and Probe Used in the RSV A2 HAE Antiviral Assay: RSV N Forward […] (SEQ ID NO: 2), RSV N Reverse […] (SEQ ID NO: 3), RSV N Probe FAM-[…]-BHQ (SEQ ID NO: 4).

| SMILES | EC50 (HRV16) [nM] | EC50 (HRV1a) [nM] | EC50 (HRV14) [nM] | EC50 (RSV A strain A2) [nM] | times more potent than compound 7, HRV16 HeLa (HRV16; EC50 ratio vs compound 7) [times] | times more potent relative to compound 2, RSV HAE (RSV A strain A2; EC50 ratio vs compound 2) | times more potent than the compound of Formula Ib, HRV16 HeLa (HRV16; EC50 ratio vs Formula Ib) [times] | times more potent relative to compound 1, HRV16 HeLa (HRV16; EC50 ratio vs compound 1) | times more potent relative to compound 3, HRV16 HeLa (HRV16; EC50 ratio vs compound 3) | times more potent relative to compound 4, HRV16 Hela (HRV16; EC50 ratio vs compound 4) | times more potent relative to compound 5, HRV16 HeLa (HRV16; EC50 ratio vs compound 5) | times more potent relative to compound 1, HRV1A HeLa (HRV1a; EC50 ratio vs compound 1) [times] | times more potent compared to compound 2, HRV1A HeLa (HRV1a; EC50 ratio vs compound 2) | times more potent relative to compound 3, HRV1A HeLa (HRV1a; EC50 ratio vs compound 3) | times more potent relative to compound 5, HRV1A HeLa (HRV1a; EC50 ratio vs compound 5) | times more potent relative to compound 1, HRV14 HeLa (HRV14; EC50 ratio vs compound 1) [times] | times more potent compared to compound 2, HRV14 HeLa (HRV14; EC50 ratio vs compound 2) | times more potent relative to compound 3, HRV14 HeLa (HRV14; EC50 ratio vs compound 3) | times more potent relative to compound 5, HRV14 HeLa (HRV14; EC50 ratio vs compound 5) |
| --- | --- | --- | --- | --- | --- | --- | --- | --- | --- | --- | --- | --- | --- | --- | --- | --- | --- | --- | --- |
| CCOC(=O)[C@H](C)NP(=O)(OC[C@@]1(C#N)O[C@@H](c2ccc3c(N)ncnn23)[C@H](O)[C@@H]1O)Oc1ccccc1 (stereo partly shown) [Compound 1, reference compound] | 959 | 409 | 1000 |  |  |  |  |  |  |  |  |  |  |  |  |  |  |  |  |
| CCC(CC)COC(=O)[C@H](C)NP(=O)(OC[C@@]1(C#N)O[C@@H](c2ccc3c(N)ncnn23)[C@H](O)[C@@H]1O)Oc1ccccc1 (stereo partly shown) [Compound 2, reference compound] | 164 | 97 | 171 | 186 |  |  |  |  |  |  |  |  |  |  |  |  |  |  |  |
| CCC(CC)COC(=O)[C@H](C)N[P@](=O)(OC[C@@]1(C#N)O[C@@H](c2ccc3c(N)ncnn23)[C@H](O)[C@@H]1O)Oc1ccccc1 [Compound 6, 2-ethylbutyl ((S)-(((2R,3S,4R,5S)-5-(4-aminopyrrolo[2,1-f][1,2,4]triazin-7-yl)-2-cyano-3,4-dihydroxytetrahydrofuran-2-yl)methoxy)(phenoxy)phosphoryl)alaninate] | 135 |  |  | 110 | 1.4 |  |  |  |  |  |  |  |  |  |  |  |  |  |  |
| C[C@H](N[P@](=O)(OC[C@@]1(C#N)O[C@@H](c2ccc3c(N)ncnn23)[C@H](O)[C@@H]1O)Oc1ccccc1)C(=O)OC1CCCCC1 [Formula I, cyclohexyl ((S)-(((2R,3S,4R,5S)-5-(4-aminopyrrolo[2,1-f][1,2,4]triazin-7-yl)-2-cyano-3,4-dihydroxytetrahydrofuran-2-yl)methoxy)(phenoxy)phosphoryl)-L-alaninate] | 227 | 8 | 78 | 23 |  | about 8.1 times | 2.9 | about 4.2 times | about 6.2 times | about 4.3 times | about 13.8 times | ~51.1 | about 12.1 times | about 91.9 times | about 203.1 times | ~12.8 | about 2.2 times | about 23.2 times | about 44.0 times |
